30 compounds from ChEMBL document CHEMBL4152386, “Discovery of a Novel Inhaled PI3Kδ Inhibitor for the Treatment of Respiratory Diseases” (J Med Chem, 2018) can be followed below.

Structures are written as SMILES.

Series [1] has as its target PI3-kinase p110-alpha/p85-alpha (Homo sapiens, UniProt P42336).
Description: Inhibition of recombinant human N-terminal His6-tagged full length p110alpha/recombinant human full length p85alpha using PIP2 as substrate preincubated for 30 mins followed by substrate addition by HTRF assay
The target in series [2] is PI3-kinase p110-delta/p85-alpha (Homo sapiens, UniProt O00329).
Description: Inhibition of recombinant human N-terminal His-tagged full length p110delta/recombinant human full length p85alpha using PIP2 as substrate preincubated for 30 mins followed by substrate addition by HTRF assay
Series [3] addresses Phosphatidylinositol 4,5-bisphosphate 3-kinase catalytic subunit gamma isoform (Homo sapiens, UniProt P48736). In words: Inhibition of recombinant human N-terminal His6-tagged full length p110gamma using PIP2 as substrate preincubated for 30 mins followed by substrate addition by HTRF assay. Background: Time-resolved FRET reads energy transfer from a long-lived donor to a nearby acceptor.

Another series deals with PI3K p110 beta/p85 alpha (Homo sapiens, UniProt P42338).
Chain of PI3K p110 beta/p85 alpha (P27986 whole entry): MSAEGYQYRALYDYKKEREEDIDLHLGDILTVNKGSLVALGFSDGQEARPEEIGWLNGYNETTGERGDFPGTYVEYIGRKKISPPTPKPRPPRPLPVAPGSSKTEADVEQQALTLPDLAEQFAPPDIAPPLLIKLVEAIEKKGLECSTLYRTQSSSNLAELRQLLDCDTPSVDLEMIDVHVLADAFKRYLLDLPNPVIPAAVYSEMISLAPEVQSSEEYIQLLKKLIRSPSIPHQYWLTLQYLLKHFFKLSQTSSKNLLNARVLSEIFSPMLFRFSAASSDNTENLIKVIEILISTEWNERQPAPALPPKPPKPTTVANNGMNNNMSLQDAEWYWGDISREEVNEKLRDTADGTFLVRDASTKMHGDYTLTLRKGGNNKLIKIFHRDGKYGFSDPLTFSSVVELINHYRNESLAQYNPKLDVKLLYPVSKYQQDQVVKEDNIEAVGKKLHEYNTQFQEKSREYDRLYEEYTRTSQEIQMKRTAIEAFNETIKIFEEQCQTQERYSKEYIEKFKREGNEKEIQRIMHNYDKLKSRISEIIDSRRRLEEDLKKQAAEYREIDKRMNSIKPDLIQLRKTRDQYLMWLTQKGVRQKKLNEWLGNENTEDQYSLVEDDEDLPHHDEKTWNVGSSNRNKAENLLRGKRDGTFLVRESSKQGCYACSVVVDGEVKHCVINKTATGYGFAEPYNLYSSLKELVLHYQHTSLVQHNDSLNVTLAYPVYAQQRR
Chain of PI3K p110 beta/p85 alpha (P42338 whole entry): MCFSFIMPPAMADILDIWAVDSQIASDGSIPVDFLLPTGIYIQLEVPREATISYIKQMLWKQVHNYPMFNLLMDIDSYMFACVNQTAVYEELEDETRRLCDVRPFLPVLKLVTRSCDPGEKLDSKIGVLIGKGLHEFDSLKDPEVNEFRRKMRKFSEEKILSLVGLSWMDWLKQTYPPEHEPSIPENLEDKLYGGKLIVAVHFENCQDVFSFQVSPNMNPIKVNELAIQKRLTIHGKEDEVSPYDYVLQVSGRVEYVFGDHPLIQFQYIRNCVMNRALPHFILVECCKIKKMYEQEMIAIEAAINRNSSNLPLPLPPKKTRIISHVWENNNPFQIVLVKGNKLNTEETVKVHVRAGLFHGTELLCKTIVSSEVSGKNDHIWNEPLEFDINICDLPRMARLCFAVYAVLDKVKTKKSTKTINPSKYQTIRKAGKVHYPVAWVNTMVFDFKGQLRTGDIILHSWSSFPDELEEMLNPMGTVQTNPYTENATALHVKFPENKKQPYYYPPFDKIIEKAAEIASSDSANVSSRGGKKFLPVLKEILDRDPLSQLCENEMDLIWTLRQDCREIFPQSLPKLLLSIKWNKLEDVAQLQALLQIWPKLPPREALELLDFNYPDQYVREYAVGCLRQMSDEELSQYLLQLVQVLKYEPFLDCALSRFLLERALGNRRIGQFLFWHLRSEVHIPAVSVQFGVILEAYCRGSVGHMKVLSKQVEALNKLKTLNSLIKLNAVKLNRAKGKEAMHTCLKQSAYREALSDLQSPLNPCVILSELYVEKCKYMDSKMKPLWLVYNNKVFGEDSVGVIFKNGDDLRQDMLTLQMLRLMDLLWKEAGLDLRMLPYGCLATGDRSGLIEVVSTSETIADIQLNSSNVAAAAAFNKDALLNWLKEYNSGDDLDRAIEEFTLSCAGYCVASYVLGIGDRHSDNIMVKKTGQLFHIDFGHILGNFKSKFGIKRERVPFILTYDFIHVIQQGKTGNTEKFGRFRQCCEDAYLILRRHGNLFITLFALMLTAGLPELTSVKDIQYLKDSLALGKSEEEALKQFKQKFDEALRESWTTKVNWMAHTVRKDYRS
The nature of series [4]: Drug metabolism in rat liver microsomes assessed as disappearance of parent compound at 5 uM after 30 mins in presence of NADPH by UPLC-MS/MS analysis. Particulars: read-out: Drug metabolism. In kind it is ADME, microsome. Background: Microsomes from liver hold many membrane-bound enzymes, among them those of drug oxidation.
Series [5] in a line: Drug metabolism in human liver microsomes assessed as disappearance of parent compound at 5 uM preincubated for 3 mins followed UDPG addition and measured after 120 mins by UPLC-MS/MS analysis. The series is classed as ADME, microsome. Particulars: read-out: Drug metabolism.
Series [6] in a line: Drug metabolism in human liver microsomes assessed as disappearance of parent compound at 5 uM after 30 mins in presence of NADPH by UPLC-MS/MS analysis. The series is classed as ADME, microsome. The note with it: read-out: Drug metabolism.
The nature of series [7]: Drug metabolism in rat liver microsomes assessed as disappearance of parent compound at 5 uM preincubated for 3 mins followed UDPG addition and measured after 120 mins by UPLC-MS/MS analysis. In kind it is ADME, microsome. The note with it: read-out: Drug metabolism.

Chain of Phosphatidylinositol 4,5-bisphosphate 3-kinase catalytic subunit gamma isoform (P48736 whole entry, canonical isoform): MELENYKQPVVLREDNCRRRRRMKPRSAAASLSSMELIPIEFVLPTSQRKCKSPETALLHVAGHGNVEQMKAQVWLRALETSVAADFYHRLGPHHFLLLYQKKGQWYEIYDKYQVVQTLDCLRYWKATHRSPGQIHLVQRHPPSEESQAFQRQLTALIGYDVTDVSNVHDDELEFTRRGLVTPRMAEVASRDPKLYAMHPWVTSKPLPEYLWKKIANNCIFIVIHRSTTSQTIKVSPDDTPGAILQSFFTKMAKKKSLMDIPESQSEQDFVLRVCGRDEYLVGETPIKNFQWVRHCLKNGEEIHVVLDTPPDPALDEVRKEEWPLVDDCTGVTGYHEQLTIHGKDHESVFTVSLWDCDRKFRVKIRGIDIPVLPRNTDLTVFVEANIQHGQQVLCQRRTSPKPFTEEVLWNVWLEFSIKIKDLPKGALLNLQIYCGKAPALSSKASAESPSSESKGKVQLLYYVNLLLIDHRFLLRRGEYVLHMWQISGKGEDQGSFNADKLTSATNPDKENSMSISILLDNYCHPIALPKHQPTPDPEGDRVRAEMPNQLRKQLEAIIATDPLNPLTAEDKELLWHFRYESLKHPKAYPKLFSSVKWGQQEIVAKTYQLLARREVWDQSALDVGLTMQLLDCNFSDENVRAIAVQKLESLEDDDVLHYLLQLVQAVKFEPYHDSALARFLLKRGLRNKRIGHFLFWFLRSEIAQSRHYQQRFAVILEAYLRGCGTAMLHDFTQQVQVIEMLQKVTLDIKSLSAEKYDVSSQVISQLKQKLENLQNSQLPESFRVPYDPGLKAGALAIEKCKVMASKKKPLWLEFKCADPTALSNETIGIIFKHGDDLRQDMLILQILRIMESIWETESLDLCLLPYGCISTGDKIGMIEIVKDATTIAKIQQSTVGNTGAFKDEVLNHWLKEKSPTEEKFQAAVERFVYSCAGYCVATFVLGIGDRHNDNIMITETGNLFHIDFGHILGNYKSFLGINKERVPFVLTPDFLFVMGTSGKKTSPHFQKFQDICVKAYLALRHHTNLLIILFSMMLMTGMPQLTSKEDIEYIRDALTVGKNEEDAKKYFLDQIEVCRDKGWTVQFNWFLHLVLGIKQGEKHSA
Chain of PI3-kinase p110-delta/p85-alpha (P27986 whole entry, canonical isoform): as the sequence (P27986 whole entry) above
Chain of PI3-kinase p110-delta/p85-alpha (O00329 whole entry, canonical isoform): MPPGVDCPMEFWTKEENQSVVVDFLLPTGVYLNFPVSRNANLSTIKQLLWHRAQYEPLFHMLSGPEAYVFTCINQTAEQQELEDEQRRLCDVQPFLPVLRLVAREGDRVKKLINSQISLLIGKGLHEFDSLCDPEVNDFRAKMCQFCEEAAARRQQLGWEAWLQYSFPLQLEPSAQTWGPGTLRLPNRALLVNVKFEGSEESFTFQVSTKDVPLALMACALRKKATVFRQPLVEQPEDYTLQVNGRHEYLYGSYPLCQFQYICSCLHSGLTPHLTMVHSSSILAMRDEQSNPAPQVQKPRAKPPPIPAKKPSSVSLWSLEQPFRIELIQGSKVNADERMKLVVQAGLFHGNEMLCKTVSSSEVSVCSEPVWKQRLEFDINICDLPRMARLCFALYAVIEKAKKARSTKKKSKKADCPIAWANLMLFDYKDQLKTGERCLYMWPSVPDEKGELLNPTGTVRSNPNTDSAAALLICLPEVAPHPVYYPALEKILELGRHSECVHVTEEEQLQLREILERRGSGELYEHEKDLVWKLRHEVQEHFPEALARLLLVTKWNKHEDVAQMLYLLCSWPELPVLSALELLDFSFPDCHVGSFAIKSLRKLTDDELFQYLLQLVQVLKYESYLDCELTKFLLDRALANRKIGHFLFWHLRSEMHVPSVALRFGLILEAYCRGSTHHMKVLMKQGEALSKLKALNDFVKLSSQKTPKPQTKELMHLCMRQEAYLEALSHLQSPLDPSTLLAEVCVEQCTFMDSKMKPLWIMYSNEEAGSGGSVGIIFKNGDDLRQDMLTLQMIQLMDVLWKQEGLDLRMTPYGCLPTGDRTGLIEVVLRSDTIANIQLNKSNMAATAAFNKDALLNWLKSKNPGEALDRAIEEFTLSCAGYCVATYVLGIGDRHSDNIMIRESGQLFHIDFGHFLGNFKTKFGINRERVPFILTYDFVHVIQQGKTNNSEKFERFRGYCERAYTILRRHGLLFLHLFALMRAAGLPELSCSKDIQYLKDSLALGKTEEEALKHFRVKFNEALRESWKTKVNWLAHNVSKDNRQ
Chain of PI3-kinase p110-alpha/p85-alpha (P27986 whole entry): as the sequence (P27986 whole entry) above
Chain of PI3-kinase p110-alpha/p85-alpha (P42336 whole entry): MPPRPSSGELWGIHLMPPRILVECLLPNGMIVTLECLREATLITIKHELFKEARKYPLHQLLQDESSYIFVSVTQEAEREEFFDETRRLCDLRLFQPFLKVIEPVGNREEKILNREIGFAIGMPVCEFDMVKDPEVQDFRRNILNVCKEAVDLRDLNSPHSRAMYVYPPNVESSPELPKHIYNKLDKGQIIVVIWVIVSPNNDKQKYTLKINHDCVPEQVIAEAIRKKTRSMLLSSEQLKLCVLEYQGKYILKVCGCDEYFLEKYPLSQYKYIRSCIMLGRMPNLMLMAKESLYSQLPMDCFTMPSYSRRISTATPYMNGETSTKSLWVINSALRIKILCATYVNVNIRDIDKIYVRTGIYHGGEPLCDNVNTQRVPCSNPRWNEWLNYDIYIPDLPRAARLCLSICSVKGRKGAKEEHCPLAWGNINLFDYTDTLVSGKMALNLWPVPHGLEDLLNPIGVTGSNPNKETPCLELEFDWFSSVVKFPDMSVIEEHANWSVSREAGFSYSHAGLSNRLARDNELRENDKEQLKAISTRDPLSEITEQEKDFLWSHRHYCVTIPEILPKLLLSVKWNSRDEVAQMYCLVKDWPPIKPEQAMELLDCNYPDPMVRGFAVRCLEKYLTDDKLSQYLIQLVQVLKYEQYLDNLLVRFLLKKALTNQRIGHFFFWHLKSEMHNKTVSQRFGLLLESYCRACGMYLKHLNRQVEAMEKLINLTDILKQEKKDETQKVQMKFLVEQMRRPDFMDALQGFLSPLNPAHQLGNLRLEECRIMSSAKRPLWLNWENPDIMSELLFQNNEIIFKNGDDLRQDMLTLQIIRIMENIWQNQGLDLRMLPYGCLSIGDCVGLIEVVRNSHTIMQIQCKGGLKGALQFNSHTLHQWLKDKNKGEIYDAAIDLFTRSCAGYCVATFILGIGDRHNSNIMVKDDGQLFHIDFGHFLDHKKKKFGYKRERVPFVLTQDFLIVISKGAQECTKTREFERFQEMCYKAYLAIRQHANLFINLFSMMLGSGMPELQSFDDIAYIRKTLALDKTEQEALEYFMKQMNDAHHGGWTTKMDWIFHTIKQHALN
Description for PI3K p110 beta/p85 alpha: Inhibition of recombinant human N-terminal His6-tagged full length p110beta/recombinant human full length p85alpha using PIP2 as substrate preincubated for 30 mins followed by substrate addition and HTRF assay

Broadly, the IC50 is the midpoint of a concentration-inhibition curve. Regarding `Cc1ccn2nc([C@H](C)Nc3ncnc(N)c3C#N)n(-c3ccccc3)c(=O)c12`, the IC50 in series [1] came to 2300 nM; in series [2] it was 1 nM; in series [3], 65 nM; against PI3K p110 beta/p85 alpha, 120 nM.

In the case of `C[C@H](Nc1ncnc(N)c1C#N)c1nn2cccc2c(=O)n1-c1ccccc1`, in series [4], the metabolised at 0.5 h, 5 µM is 16%.

`Cc1ccn2nc([C@H](C)Nc3ncnc4[nH]cc(-c5cc(O)cc(F)c5)c34)n(-c3ccccc3)c(=O)c12`: the IC50 in series [1] was 9 nM; in series [2], 0.2 nM; in series [3], 0.6 nM; on PI3K p110 beta/p85 alpha it was 2.3 nM.

In the case of `Cc1ccn2nc([C@H](C)Nc3ncnc(N)c3-c3cnc(N)nc3)n(-c3ccccc3)c(=O)c12`, the metabolised at 2 h, 5 µM in series [5] came out at 6%. Moreover, the IC50 in series [3] was 120 nM; on PI3K p110 beta/p85 alpha, 360 nM. In addition, the metabolised at 0.5 h, 5 µM in series [6] came out at 27%.

Turning to `Cc1ccn2nc([C@H](C)Nc3ncnc(N)c3-c3ccc4cc[nH]c4c3)n(-c3ccccc3)c(=O)c12`, the IC50 came to 8500 nM in series [1], 420 nM in series [3] and 140 nM against PI3K p110 beta/p85 alpha. The metabolised at 2 h, 5 µM in series [5] came to 9.6%. Moreover, the metabolised at 0.5 h, 5 µM worked out at 50% in series [6] and 47% in series [4].

For `Cc1ccn2nc([C@H](C)Nc3ncnc(N)c3Cc3cccc(O)c3)n(-c3ccccc3)c(=O)c12`, the IC50 was determined as 6600 nM in series [1], 22 nM in series [2] and 3000 nM on PI3K p110 beta/p85 alpha.

Take `Cc1ccn2nc([C@H](C)Nc3ncnc(N)c3C(=O)Nc3cccc(O)c3)n(-c3ccccc3)c(=O)c12`: the half-maximal inhibitory concentration (IC50) was 1400 nM in series [1], 0.2 nM in series [2], 10 nM in series [3] and 39 nM against PI3K p110 beta/p85 alpha. In addition, the metabolised at 0.5 h, 5 µM in series [6] was determined as 60%; in series [4], 42%.

In the case of `Cc1ccn2nc([C@H](C)Nc3ncnc4[nH]cc(Cc5cccc(O)c5)c34)n(-c3ccccc3)c(=O)c12`, the IC50 in series [1] stood at 2900 nM; in series [2], 1.4 nM; in series [3] it was 64 nM; against PI3K p110 beta/p85 alpha, 210 nM. Also, the results for the metabolised at 0.5 h, 5 µM in series [6] and in series [4] were 100% and 72%, respectively.

With `Cc1ccn2nc([C@H](C)Nc3ncnc(N)c3-c3cc(O)cc(C(F)(F)F)c3)n(-c3ccccc3)c(=O)c12`, the IC50 in series [1] is 310 nM; in series [2] it was 0.2 nM; in series [3], 6.8 nM; against PI3K p110 beta/p85 alpha, 10 nM.

In the case of `Cc1ccn2nc([C@H](C)Nc3ncnc4[nH]cc(-c5cn[nH]c5)c34)n(-c3ccccc3)c(=O)c12`, the figures for the concentration for half-maximal inhibition (IC50) (in series [2]; against PI3K p110 beta/p85 alpha) were 0.4 nM and 4.3 nM, respectively. Further, the metabolised at 0.5 h, 5 µM was found to be 97% in series [6] and 21% in series [4].

For `Cc1ccn2nc([C@H](C)Nc3ncnc4[nH]cc(Sc5cccc(O)c5)c34)n(-c3ccccc3)c(=O)c12`, the values for the concentration for half-maximal inhibition (IC50) (in series [1]; in series [2]; against PI3K p110 beta/p85 alpha) were 770 nM, 1 nM and 170 nM, respectively. Also, the metabolised at 2 h, 5 µM stood at 84% in series [5] and 74% in series [7]. For the same compound, the values for the metabolised at 0.5 h, 5 µM in series [6] and in series [4] were 99% and 64%, respectively.

For `Cc1ccn2nc([C@H](C)Nc3ncnc(N)c3-c3cc(O)cc(F)c3)n(-c3ccccc3)c(=O)c12`, the half-maximal inhibitory concentration (IC50) in series [1] was 1900 nM; in series [2] it was 0.6 nM; in series [3], 40 nM; against PI3K p110 beta/p85 alpha, 110 nM. For the same compound, the metabolised at 2 h, 5 µM turned out to be 74% in series [5] and 26% in series [7]. Also, the metabolised at 0.5 h, 5 µM in series [6] was found to be 84%; in series [4], 75%.

Consider `Cc1ccn2nc([C@H](C)Nc3ncnc4[nH]cc(-c5cc(C(F)(F)F)ccc5O)c34)n(-c3ccccc3)c(=O)c12`, for which the half-maximal inhibitory concentration (IC50) in series [1] stood at 250 nM; in series [2], 0.3 nM; in series [3], 3.3 nM; against PI3K p110 beta/p85 alpha, 7.3 nM. Also, the values for the metabolised at 0.5 h, 5 µM in series [6] and in series [4] were 58% and 21%, respectively.

For `Cc1ccn2nc([C@H](C)Nc3ncnc4[nH]cc(-c5cccc6cc[nH]c56)c34)n(-c3ccccc3)c(=O)c12`, the half-maximal inhibitory concentration (IC50) in series [2] amounted to 1.3 nM; against PI3K p110 beta/p85 alpha, 79 nM.

Consider `Cc1ccn2nc([C@H](C)Nc3ncnc(N)c3-c3ccc4oc(=O)[nH]c4c3)n(-c3ccccc3)c(=O)c12`, for which the concentration for half-maximal inhibition (IC50) in series [2] was 11 nM; in series [3], 430 nM; on PI3K p110 beta/p85 alpha, 1300 nM.

For `Cc1ccn2nc([C@H](C)Nc3ncnc4[nH]cc(-c5cnn(C)c5)c34)n(-c3ccccc3)c(=O)c12`, the half-inhibitory concentration (IC50) in series [1] came out at 230 nM; in series [2], 0.2 nM; in series [3] it was 3.6 nM; at PI3K p110 beta/p85 alpha, 22 nM. In addition, the metabolised at 2 h, 5 µM came to 91% in series [5] and 6% in series [7]. Moreover, the metabolised at 0.5 h, 5 µM in series [6] was found to be 91%; in series [4], 36%.

As for `Cc1ccn2nc([C@H](C)Nc3ncnc(N)c3-c3cc(O)cc(Cl)c3)n(-c3ccccc3)c(=O)c12`, the IC50 in series [1] was 560 nM; in series [2] it was 0.2 nM; against PI3K p110 beta/p85 alpha, 57 nM. Further, the metabolised at 2 h, 5 µM in series [5] is 97%; in series [7], 83%. Also, the metabolised at 0.5 h, 5 µM in series [6] amounted to 55%; in series [4], 54%.

For `COc1cccc(-c2c[nH]c3ncnc(N[C@@H](C)c4nn5ccc(C)c5c(=O)n4-c4ccccc4)c23)c1O`, the concentration for half-maximal inhibition (IC50) was determined as 760 nM in series [1], 0.2 nM in series [2], 81 nM in series [3] and 14 nM on PI3K p110 beta/p85 alpha. Further, the figures for the metabolised at 2 h, 5 µM in series [5] and in series [7] were 90% and 44%, respectively. Moreover, the values for the metabolised at 0.5 h, 5 µM in series [6] and in series [4] were 99% and 58%, respectively.

Turning to `Cc1ccn2nc([C@H](C)Nc3ncnc(N)c3-c3ccc(O)cc3)n(-c3ccccc3)c(=O)c12`, the half-maximal inhibitory concentration (IC50) in series [1] was 8400 nM; in series [2] it was 22 nM; in series [3], 160 nM; against PI3K p110 beta/p85 alpha, 1700 nM. The metabolised at 2 h, 5 µM amounted to 76% in series [5] and 21% in series [7]. Moreover, the metabolised at 0.5 h, 5 µM in series [6] came out at 84%; in series [4], 22%.

Turning to `Cc1ccn2nc([C@H](C)Nc3ncnc4[nH]cc(-c5cc(O)cc(NS(C)(=O)=O)c5)c34)n(-c3ccccc3)c(=O)c12`, the half-maximal inhibitory concentration (IC50) amounted to 22 nM in series [1], 0.2 nM in series [2], 0.7 nM in series [3] and 2.5 nM on PI3K p110 beta/p85 alpha. For the same compound, the metabolised at 2 h, 5 µM in series [5] came out at 94%; in series [7], 28%. Besides, the metabolised at 0.5 h, 5 µM was 67% in series [6] and 16% in series [4].

Regarding `Cc1ccn2nc([C@H](C)Nc3ncnc(N)c3Sc3cccc(O)c3)n(-c3ccccc3)c(=O)c12`, the IC50 in series [1] stood at 8400 nM; in series [2], 1.8 nM; in series [3], 45 nM; against PI3K p110 beta/p85 alpha, 950 nM. Besides, the metabolised at 0.5 h, 5 µM is 100% in series [6] and 94% in series [4].

As to `Cc1ccn2nc([C@H](C)Nc3ncnc4[nH]cc(-c5cccc6[nH]ccc56)c34)n(-c3ccccc3)c(=O)c12`, the IC50 in series [1] was found to be 410 nM; in series [2], 0.2 nM; in series [3], 17 nM; on PI3K p110 beta/p85 alpha it was 12 nM. The metabolised at 0.5 h, 5 µM in series [6] was 92%; in series [4], 74%.

Regarding `Cc1ccn2nc([C@H](C)Nc3ncnc(N)c3-c3cccc(NS(C)(=O)=O)c3)n(-c3ccccc3)c(=O)c12`, the IC50 in series [1] was determined as 730 nM; in series [2] it was 0.3 nM; in series [3] it was 1.7 nM; on PI3K p110 beta/p85 alpha, 37 nM. The figures for the metabolised at 0.5 h, 5 µM in series [6] and in series [4] were 97% and 32%, respectively.

Turning to `COc1cc(-c2c[nH]c3ncnc(N[C@@H](C)c4nn5ccc(C)c5c(=O)n4-c4ccccc4)c23)ccc1O`, the 50% inhibitory concentration (IC50) in series [1] came out at 1.2 nM; in series [2], 0.2 nM; in series [3], 0.3 nM; at PI3K p110 beta/p85 alpha, 1.3 nM.

As for `Cc1ccn2nc([C@H](C)Nc3ncnc4[nH]cc(-c5cccc(NS(C)(=O)=O)c5)c34)n(-c3ccccc3)c(=O)c12`, the concentration for half-maximal inhibition (IC50) in series [1] was 190 nM; in series [2] it was 0.3 nM; in series [3], 3.1 nM; against PI3K p110 beta/p85 alpha, 29 nM. Moreover, the metabolised at 0.5 h, 5 µM in series [6] turned out to be 74%; in series [4], 23%.

In the case of `Cc1ccn2nc([C@H](C)Nc3ncnc4[nH]cc(C(=O)Nc5cccc(O)c5)c34)n(-c3ccccc3)c(=O)c12`, the half-inhibitory concentration (IC50) amounted to 1000 nM in series [1], 2 nM in series [2], 13 nM in series [3] and 230 nM on PI3K p110 beta/p85 alpha.

`Cc1ccn2nc([C@H](C)Nc3ncnc4[nH]cc(-c5cccc(F)c5O)c34)n(-c3ccccc3)c(=O)c12`: the IC50 came out at 1000 nM in series [1], 1.9 nM in series [2], 12 nM in series [3] and 52 nM on PI3K p110 beta/p85 alpha. Besides, the metabolised at 0.5 h, 5 µM in series [6] turned out to be 41%; in series [4], 27%.

Compound `Cc1ccn2nc([C@H](C)Nc3ncnc4[nH]cc(-c5ccccc5O)c34)n(-c3ccccc3)c(=O)c12` registered an IC50 in series [2] of 5.1 nM. The metabolised at 0.5 h, 5 µM in series [6] amounted to 99%; in series [4], 72%.

Consider `Cc1ccn2nc([C@H](C)Nc3ncnc(N)c3-c3cc(O)cc(NS(C)(=O)=O)c3)n(-c3ccccc3)c(=O)c12`, for which, in series [3], the 50% inhibitory concentration (IC50) amounted to 15 nM.

Take `Cc1ccn2nc([C@H](C)Nc3ncnc4[nH]cc(-c5ccc(O)cc5)c34)n(-c3ccccc3)c(=O)c12`: the concentration for half-maximal inhibition (IC50) in series [1] stood at 110 nM; in series [2] it was 0.4 nM; in series [3] it was 0.7 nM; against PI3K p110 beta/p85 alpha it was 4.1 nM.
